Assay results reported in patent publication US20220281831A1, “FUSED-GLUTARIMIDE CRBN LIGANDS AND USES THEREOF” (Kymera Therapeutics, Inc., priority 2019, published 2022).

Each molecule was assayed against His-tagged CRBN-DDB1 complex (Homo sapiens, UniProt Q96SW2) (assay: Time-Resolved Fluorescence Resonance Energy Transfer (TR-FRET / HTRF) CRBN binding assay, displacement of Cy5-labeled thalidomide). Details: His-CRBN-DDB1, Cy5-thalidomide 8 nM, 1 hour room temperature.
Description: Time-Resolved Fluorescence Resonance Energy Transfer (TR-FRET) Assay.
Equal volumes of His-tagged CRBN-DDB1 complex (56 nM) was mixed with Eu-cryptate labeled Anti-6HIS-monoclonal antibody (50× dilution from the commercial stock solution, Vender: Cisbio, Cat. #61HI2KLA) in a final buffer containing 20 mM HEPES pH 7.0, 150 mM NaCl, 0.005% Tween-20. […] The mixture were incubated at room temperature for 1 hour. FRET signals were measured on an EnVision plate reader (Perkin Elmer) by exciting at 340 nm and recording emission at both 615 nm as no FRET control and 665 nm as the FRET signals with a 60 microsecond delay. FRET efficiency was calculated as the ratio of fluorescent signals at […]. Quantitative loss of FRET efficiency as a function of compound concentrations was fitted by a four-parameter Logistic Function using GraphPad Prism 7.0 and the IC50 values were reported for each compound.
The compound numbers correspond to the compound numbers in Table 1.

Chain of His-tagged CRBN-DDB1 complex (Q96SW2 whole entry): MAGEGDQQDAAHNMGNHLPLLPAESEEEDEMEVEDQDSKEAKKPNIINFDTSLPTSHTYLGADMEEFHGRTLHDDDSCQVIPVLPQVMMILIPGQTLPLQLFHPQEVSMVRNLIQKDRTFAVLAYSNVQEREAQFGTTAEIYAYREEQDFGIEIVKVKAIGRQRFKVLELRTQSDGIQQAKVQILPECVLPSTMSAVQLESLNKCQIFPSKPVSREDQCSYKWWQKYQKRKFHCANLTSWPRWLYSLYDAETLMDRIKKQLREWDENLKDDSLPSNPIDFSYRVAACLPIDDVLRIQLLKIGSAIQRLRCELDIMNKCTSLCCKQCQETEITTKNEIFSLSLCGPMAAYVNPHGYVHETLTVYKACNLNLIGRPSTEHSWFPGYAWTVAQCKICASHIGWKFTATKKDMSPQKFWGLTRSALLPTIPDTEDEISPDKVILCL
Chain of His-tagged CRBN-DDB1 complex (Q16531 whole entry partner): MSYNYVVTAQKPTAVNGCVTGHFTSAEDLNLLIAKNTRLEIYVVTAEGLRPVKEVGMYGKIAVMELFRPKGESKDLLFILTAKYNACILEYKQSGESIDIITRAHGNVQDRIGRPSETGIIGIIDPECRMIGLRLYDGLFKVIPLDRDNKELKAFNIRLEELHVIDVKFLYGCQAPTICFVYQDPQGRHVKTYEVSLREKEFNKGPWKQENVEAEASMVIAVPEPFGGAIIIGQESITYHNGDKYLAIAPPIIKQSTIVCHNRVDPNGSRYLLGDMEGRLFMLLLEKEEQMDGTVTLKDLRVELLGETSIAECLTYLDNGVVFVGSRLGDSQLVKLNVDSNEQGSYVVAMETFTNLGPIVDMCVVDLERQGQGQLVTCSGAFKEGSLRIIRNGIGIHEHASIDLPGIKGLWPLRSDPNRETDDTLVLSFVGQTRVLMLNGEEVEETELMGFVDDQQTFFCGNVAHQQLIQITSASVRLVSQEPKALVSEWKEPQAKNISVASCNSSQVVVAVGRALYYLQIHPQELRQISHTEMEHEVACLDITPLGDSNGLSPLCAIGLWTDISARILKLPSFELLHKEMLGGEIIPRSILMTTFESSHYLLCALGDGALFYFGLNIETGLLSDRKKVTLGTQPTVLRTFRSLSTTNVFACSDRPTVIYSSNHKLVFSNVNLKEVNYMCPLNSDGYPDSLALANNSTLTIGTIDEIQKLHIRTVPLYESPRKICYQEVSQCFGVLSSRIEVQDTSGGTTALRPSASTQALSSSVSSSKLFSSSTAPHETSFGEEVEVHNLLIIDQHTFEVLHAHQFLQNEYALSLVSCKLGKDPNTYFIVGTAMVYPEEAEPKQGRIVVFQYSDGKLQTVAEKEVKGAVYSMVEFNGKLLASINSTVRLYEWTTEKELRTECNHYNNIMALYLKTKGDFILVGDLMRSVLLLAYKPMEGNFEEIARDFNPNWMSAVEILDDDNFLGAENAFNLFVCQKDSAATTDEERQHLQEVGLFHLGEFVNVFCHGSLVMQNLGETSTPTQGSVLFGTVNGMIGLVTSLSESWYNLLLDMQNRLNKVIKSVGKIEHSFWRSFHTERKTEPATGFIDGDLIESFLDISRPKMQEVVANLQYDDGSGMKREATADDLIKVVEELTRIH

SMILES | IC50
O=C1Cc2cnc(Br)cc2C(=O)N1 [Compound I-13, 7-bromo-2,4-dihydro-2,6-naphthyridine-1,3-dione] | > 100 µM
O=C1NC(=O)c2cc(Br)ccc21 [Compound I-28, 5-bromo-2H-isoindole-1,3-dione] | > 100 µM
Cc1ccccc1-c1ccc2c(c1)C(=O)NC2=O [Compound I-30, 5-(2-methylphenyl)-2H-isoindole-1,3-dione] | > 100 µM
Cc1ncoc1-c1ccc2c(c1)C(=O)NC2=O [Compound I-32, 5-(4-methyl-1,3-oxazol-5-yl)-2H-isoindole-1,3-dione] | > 100 µM
Cc1ccccc1-n1cc2c(n1)CC(=O)NC2=O [Compound I-35, 2-(2-methylphenyl)-5H,7H-pyrazolo[4,3-c]pyridine-4,6-dione] | > 100 µM
O=c1[nH]c(=O)c2cc(Br)ccc2[nH]1 [Compound I-55, 6-Bromo-1,3-dihydroquinazoline-2,4-dione] | > 100 µM
O=c1[nH]c(=O)c2c(Br)cccc2[nH]1 [Compound I-56, 5-Bromo-1,3-dihydroquinazoline-2,4-dione] | > 100 µM
Cn1c(=O)[nH]c(=O)c2cc(Br)ccc21 [Compound I-59, 6-bromo-1-methyl-3H-quinazoline-2,4-dione] | > 100 µM
Cn1c(=O)[nH]c(=O)c2c(Br)cccc21 [Compound I-60, 5-bromo-1-methyl-3H-quinazoline-2,4-dione] | > 100 µM
O=C1CC2(CCN(c3ccc(OCc4ccccc4)cc3)CC2)CC(=O)N1 [Compound I-91] | > 100 µM
O=C1CC2(CCN(c3cccc4ncccc34)CC2)CC(=O)N1 [Compound I-94] | > 100 µM
CC(C)(C)OC(=O)NCc1ccc(N2CCC3(CC2)CC(=O)NC(=O)C3)cc1 [Compound I-108] | 30 to 100 µM
O=C1CC2(CCN(c3ccc(Oc4ccccc4)cc3)CC2)CC(=O)N1 [Compound I-114] | 30 to 100 µM
O=C1NC(=O)[C@@H]2CN(c3ccc(-c4ccccc4)c(F)c3)C[C@H]12 [Compound I-120] | > 100 µM
Cc1ccccc1N1C[C@@H]2C(=O)NC(=O)[C@@H]2C1 [Compound I-121] | > 100 µM
COC(=O)c1ccc(N2C[C@@H]3C(=O)NC(=O)[C@@H]3C2)cc1 [Compound I-122] | > 100 µM

SMILES | IC50
O=C1NC(=O)[C@@H]2CN(c3ccc(Br)cc3)C[C@H]12 [Compound I-123] | 30 to 100 µM
COc1cccc(N2C[C@@H]3C(=O)NC(=O)[C@@H]3C2)c1 [Compound I-125] | > 100 µM
O=C1NC(=O)[C@@H]2CN(c3cccc(Cl)c3)C[C@H]12 [Compound I-126] | > 100 µM
O=C(NC1CC1)c1ccc(N2C[C@@H]3C(=O)NC(=O)[C@@H]3C2)cc1 [Compound I-127] | > 100 µM
O=C1NC(=O)[C@@H]2CN(c3ccc(OCc4ccccc4)cc3)C[C@H]12 [Compound I-128] | > 100 µM
O=C1NC(=O)[C@@H]2CN(c3ccc(F)cc3)C[C@H]12 [Compound I-129] | > 100 µM
Cc1ccc(N2C[C@@H]3C(=O)NC(=O)[C@@H]3C2)cc1 [Compound I-130] | 30 to 100 µM
O=C1NC(=O)[C@@H]2CN(c3cccc4ncccc34)C[C@H]12 [Compound I-131] | > 100 µM
O=C1NC(=O)[C@@H]2CN(c3cccc(O)c3)C[C@H]12 [Compound I-134] | > 100 µM
O=C1NC(=O)[C@@H]2CN(c3cccc(F)c3)C[C@H]12 [Compound I-135] | > 100 µM
CC(=O)Nc1cccc(N2C[C@@H]3C(=O)NC(=O)[C@@H]3C2)c1 [Compound I-136] | > 100 µM
CC(C)Oc1cccc(N2C[C@@H]3C(=O)NC(=O)[C@@H]3C2)c1 [Compound I-137] | > 100 µM
CCCOc1ccc(N2C[C@@H]3C(=O)NC(=O)[C@@H]3C2)cc1 [Compound I-138] | > 100 µM
O=C1NC(=O)[C@@H]2CN(c3cccc(OC(F)(F)F)c3)C[C@H]12 [Compound I-139] | > 100 µM
O=C1NC(=O)[C@@H]2CN(c3ccc(O)cc3)C[C@H]12 [Compound I-140] | > 100 µM

Now from value to molecule:

IC50 | SMILES
> 100 µM | O=C1CC2(CCN(c3ccc(Br)cc3)CC2)CC(=O)N1 [Compound I-86]
> 100 µM | COc1cc(F)ccc1N1CCC2(CC1)CC(=O)NC(=O)C2 [Compound I-87]
> 100 µM | COc1cccc(N2CCC3(CC2)CC(=O)NC(=O)C3)c1 [Compound I-88]
> 100 µM | O=C1CC2(CCN(c3cccc(Cl)c3)CC2)CC(=O)N1 [Compound I-89]
> 100 µM | O=C1CC2(CCN(c3ccc(C(=O)NC4CC4)cc3)CC2)CC(=O)N1 [Compound I-90]
30 to 100 µM | O=C1CC2(CCN(c3ccc(F)cc3)CC2)CC(=O)N1 [Compound I-92]
> 100 µM | Cc1ccc(N2CCC3(CC2)CC(=O)NC(=O)C3)cc1 [Compound I-93]
30 to 100 µM | CCCOc1ccc(N2CCC3(CC2)CC(=O)NC(=O)C3)cc1 [Compound I-95]
> 100 µM | CCOC(=O)c1cccc(N2CCC3(CC2)CC(=O)NC(=O)C3)c1 [Compound I-96]
> 100 µM | O=C1CC2(CCN(c3cccc(O)c3)CC2)CC(=O)N1 [Compound I-97]
> 100 µM | O=C1CC2(CCN(c3ccc(-c4ccccc4)cc3)CC2)CC(=O)N1 [Compound I-98]
> 100 µM | O=C1CC2(CCN(c3cccc(F)c3)CC2)CC(=O)N1 [Compound I-99]
> 100 µM | CC(=O)Nc1cccc(N2CCC3(CC2)CC(=O)NC(=O)C3)c1 [Compound I-100]
> 100 µM | CC(C)Oc1cccc(N2CCC3(CC2)CC(=O)NC(=O)C3)c1 [Compound I-101]
> 100 µM | O=C1CC2(CCN(c3cccc(OC(F)(F)F)c3)CC2)CC(=O)N1 [Compound I-102]
> 100 µM | O=C1CC2(CCN(c3ccc(O)cc3)CC2)CC(=O)N1 [Compound I-103]
> 100 µM | O=C1CC2(CCN(c3cccc4cnccc34)CC2)CC(=O)N1 [Compound I-104]
> 100 µM | O=C1CC2(CCN(c3ccc(OC(F)(F)F)cc3)CC2)CC(=O)N1 [Compound I-105]
> 100 µM | O=C1CC2(CCN(c3cccc(C(=O)O)c3)CC2)CC(=O)N1 [Compound I-106]
> 100 µM | CS(=O)(=O)c1ccc(N2CCC3(CC2)CC(=O)NC(=O)C3)cc1 [Compound I-107]
> 100 µM | O=C1CC2(CCN(c3cccc4cccnc34)CC2)CC(=O)N1 [Compound I-109]
> 100 µM | O=C1CC2(CCN(c3ccc(F)cc3Cl)CC2)CC(=O)N1 [Compound I-110]
> 100 µM | N#Cc1ccccc1N1CCC2(CC1)CC(=O)NC(=O)C2 [Compound I-111]
> 100 µM | O=Cc1ccc(N2CCC3(CC2)CC(=O)NC(=O)C3)cc1 [Compound I-112]
> 100 µM | Nc1ccc(N2CCC3(CC2)CC(=O)NC(=O)C3)cc1 [Compound I-113]
> 100 µM | O=C1CC2(CCN(c3ccccc3Cl)CC2)CC(=O)N1 [Compound I-115]
> 100 µM | NC(=O)c1ccc(N2CCC3(CC2)CC(=O)NC(=O)C3)cc1 [Compound I-116]
> 100 µM | COc1ccc2cc(N3CCC4(CC3)CC(=O)NC(=O)C4)ccc2c1 [Compound I-117]
> 100 µM | O=C1CC2(CCN(c3ccc4c(c3)CCO4)CC2)CC(=O)N1 [Compound I-118]
> 100 µM | O=C1CC2(CCN(c3ccc4c(c3)OCO4)CC2)CC(=O)N1 [Compound I-119]
